In ChEMBL document CHEMBL5625233, “Exploring positions 6 and 7 of a quinazoline-based scaffold leads to changes in selectivity and potency towards RIPK2/3 kinases” (Eur J Med Chem, 2023):
Activity calls are given as the source filed them. The rule behind the calls is not given here.

Legend:
[1] = target: T1, Receptor-interacting serine/threonine-protein kinase 2 (Homo sapiens, UniProt O43353); test: Inhibition of RIPK2-mediated NF-kappaB signalling in MDP-treated human THP-1 cells preincubated for 30 mins followed by MDP addition measured after 24 hrs by luminescence based assay; type: cell-based
[2] = target: T1, Receptor-interacting serine/threonine-protein kinase 2; test: Inhibition of RIPK2-mediated NF-kappaB signalling in C14-TriLAN-Gly-treated human THP-1 cells preincubated for 30 mins followed by C14-TriLAN-Gly addition measured after 24 hrs by luminescence based assay; type: cell-based
[3] = target: T2, Receptor-interacting serine/threonine-protein kinase 3 (Homo sapiens, UniProt Q9Y572); test: Inhibition of N-terminal polyHis-tagged human RIPK3 (1 to 307 residues) expressed in Sf9 cells using MBP as substrate upto 10 uM preincubated for 15 mins followed by ATP addition measured after 90 mins by ADP-Glo assay; details: time 105.0 min
Target sequence in this assay (Q9Y572 whole entry, looked up, the tested form may be a part): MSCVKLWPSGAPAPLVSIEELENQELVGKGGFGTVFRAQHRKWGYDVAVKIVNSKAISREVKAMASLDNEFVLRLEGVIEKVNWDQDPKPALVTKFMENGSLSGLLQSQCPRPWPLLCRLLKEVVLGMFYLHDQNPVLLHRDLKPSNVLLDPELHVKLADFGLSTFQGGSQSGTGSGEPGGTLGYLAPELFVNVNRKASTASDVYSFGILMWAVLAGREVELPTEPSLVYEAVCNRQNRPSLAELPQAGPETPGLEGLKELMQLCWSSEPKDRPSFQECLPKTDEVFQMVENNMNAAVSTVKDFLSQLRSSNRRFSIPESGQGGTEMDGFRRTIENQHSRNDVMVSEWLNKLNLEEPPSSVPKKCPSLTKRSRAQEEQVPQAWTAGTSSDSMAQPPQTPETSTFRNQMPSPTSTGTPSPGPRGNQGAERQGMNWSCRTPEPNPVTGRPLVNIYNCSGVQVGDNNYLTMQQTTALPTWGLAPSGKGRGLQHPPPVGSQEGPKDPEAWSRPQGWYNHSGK

[4] = target: T1, Receptor-interacting serine/threonine-protein kinase 2; test: Inhibition of N-terminal polyHis-tagged human RIPK2 (8 to 310 residues) expressed in Sf9 cells using MBP as substrate preincubated for 15 mins followed by ATP addition measured after 90 mins by ADP-Glo assay
[5] = target: T2, Receptor-interacting serine/threonine-protein kinase 3; test: Inhibition of N-terminal polyHis-tagged human RIPK3 (1 to 307 residues) expressed in Sf9 cells using MBP as substrate preincubated for 15 mins followed by ATP addition measured after 90 mins by ADP-Glo assay
Target sequence in this assay (Q9Y572 whole entry, the tested form may be a part): as the sequence (Q9Y572 whole entry, looked up, the tested form may be a part) above

[6] = target: T3, Receptor-interacting serine/threonine-protein kinase 1 (Homo sapiens, UniProt Q13546); test: Inhibition of N-terminal polyHis-tagged human RIPK1 (1 to 321 residues) expressed in Sf9 cells using MBP as substrate preincubated for 15 mins followed by ATP addition measured after 90 mins by ADP-Glo assay
T3 sequence (Q13546 whole entry): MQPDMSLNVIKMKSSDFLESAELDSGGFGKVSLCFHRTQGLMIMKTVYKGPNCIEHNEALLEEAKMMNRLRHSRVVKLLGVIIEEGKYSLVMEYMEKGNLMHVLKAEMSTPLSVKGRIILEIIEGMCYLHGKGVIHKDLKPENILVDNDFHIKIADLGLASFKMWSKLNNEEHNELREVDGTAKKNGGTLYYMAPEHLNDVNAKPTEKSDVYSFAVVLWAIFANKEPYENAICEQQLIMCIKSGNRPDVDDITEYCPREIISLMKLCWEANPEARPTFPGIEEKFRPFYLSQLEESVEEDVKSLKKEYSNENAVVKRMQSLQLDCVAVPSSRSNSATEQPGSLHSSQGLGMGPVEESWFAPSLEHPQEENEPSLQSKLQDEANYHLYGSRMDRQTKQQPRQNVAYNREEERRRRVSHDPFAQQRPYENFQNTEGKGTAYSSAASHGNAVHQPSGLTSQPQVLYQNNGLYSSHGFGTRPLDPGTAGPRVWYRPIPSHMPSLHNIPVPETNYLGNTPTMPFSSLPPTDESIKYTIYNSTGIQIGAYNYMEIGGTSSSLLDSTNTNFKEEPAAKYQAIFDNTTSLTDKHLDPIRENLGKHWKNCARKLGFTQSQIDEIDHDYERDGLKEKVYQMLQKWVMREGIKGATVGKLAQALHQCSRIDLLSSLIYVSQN

[7] = target: T4, Receptor-interacting serine/threonine-protein kinase 4 (Homo sapiens, UniProt P57078); test: Inhibition of N-terminal polyHis-tagged human RIPK4 (1 to 321 residues) expressed in Sf9 cells using MBP as substrate preincubated for 15 mins followed by ATP addition measured after 90 mins by ADP-Glo assay
T4 sequence (P57078 whole entry): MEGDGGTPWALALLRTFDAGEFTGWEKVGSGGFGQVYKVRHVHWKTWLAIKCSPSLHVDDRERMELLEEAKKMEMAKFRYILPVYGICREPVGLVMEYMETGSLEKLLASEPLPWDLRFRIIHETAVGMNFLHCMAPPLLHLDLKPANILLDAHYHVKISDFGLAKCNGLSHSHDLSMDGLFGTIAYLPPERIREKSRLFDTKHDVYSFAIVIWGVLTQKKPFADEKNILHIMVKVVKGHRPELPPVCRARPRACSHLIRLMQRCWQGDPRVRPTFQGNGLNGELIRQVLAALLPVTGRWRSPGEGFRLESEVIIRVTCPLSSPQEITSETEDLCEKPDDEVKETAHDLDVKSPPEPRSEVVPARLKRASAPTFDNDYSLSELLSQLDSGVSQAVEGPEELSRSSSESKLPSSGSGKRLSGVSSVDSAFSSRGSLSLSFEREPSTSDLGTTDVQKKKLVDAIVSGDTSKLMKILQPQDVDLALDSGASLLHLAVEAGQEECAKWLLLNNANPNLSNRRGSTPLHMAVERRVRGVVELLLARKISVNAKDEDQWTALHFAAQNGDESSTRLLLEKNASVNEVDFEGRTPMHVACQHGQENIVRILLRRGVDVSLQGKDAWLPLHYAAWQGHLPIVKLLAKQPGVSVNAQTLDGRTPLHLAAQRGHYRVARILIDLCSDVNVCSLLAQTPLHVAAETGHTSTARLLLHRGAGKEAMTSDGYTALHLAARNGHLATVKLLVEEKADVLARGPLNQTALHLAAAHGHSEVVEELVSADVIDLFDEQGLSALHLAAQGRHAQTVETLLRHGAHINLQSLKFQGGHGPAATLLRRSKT

[8] = target: T1, Receptor-interacting serine/threonine-protein kinase 2; test: Inhibition of RIPK2-mediated NF-kappaB signalling in MDP-treated human THP-1 cells upto 10 uM preincubated for 30 mins followed by MDP addition measured after 24 hrs by luminescence based assay; type: cell-based
[9] = target: T1, Receptor-interacting serine/threonine-protein kinase 2; test: Inhibition of RIPK2-mediated NF-kappaB signalling in C14-TriLAN-Gly-treated human THP-1 cells upto 10 uM preincubated for 30 mins followed by C14-TriLAN-Gly addition measured after 24 hrs by luminescence based assay; type: cell-based

T1 sequence (O43353 whole entry): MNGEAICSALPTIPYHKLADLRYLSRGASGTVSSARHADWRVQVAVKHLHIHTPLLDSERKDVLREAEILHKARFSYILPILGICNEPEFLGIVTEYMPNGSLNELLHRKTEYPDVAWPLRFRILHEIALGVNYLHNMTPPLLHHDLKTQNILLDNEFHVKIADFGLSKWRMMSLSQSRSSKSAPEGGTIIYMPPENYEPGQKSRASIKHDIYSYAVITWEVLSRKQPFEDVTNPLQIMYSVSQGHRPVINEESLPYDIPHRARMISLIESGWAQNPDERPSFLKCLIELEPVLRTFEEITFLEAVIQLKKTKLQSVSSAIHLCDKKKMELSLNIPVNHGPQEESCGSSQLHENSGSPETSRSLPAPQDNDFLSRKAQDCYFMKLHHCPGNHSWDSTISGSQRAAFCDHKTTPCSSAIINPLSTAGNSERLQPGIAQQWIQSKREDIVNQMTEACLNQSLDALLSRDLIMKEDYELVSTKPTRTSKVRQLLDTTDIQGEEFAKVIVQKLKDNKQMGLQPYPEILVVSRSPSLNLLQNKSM

SMILES: CC(C)(C)S(=O)(=O)c1cc2c(Nc3ccc4scnc4c3)ncnc2cc1OCCOP(=O)(O)O
- IC50 [1]: 38 nM
- IC50 [2]: 92 nM
- inhibition [3]: inactive
- IC50 [4]: 4 nM

SMILES: Cn1cc(-c2ccc3ncnc(Nc4ccc5scnc5c4)c3c2)cn1
- IC50 [5]: 1500 nM
- IC50 [1]: 38 nM
- IC50 [2]: 47 nM
- IC50 [6]: > 50000 nM
- IC50 [4]: 4 nM
- IC50 [7]: > 50000 nM

SMILES: Cc1nc(-c2cc3c(Nc4ccc5scnc5c4)ncnc3cc2Cl)sc1C
- IC50 [8]: Not Active
- IC50 [9]: Not Active
- inhibition [3]: inactive
- IC50 [6]: > 50000 nM
- IC50 [7]: > 50000 nM

SMILES: Cc1ccsc1-c1cc2c(Nc3ccc4scnc4c3)ncnc2cc1Cl
- IC50 [8]: Not Active
- IC50 [9]: Not Active
- inhibition [3]: inactive
- IC50 [6]: > 50000 nM
- IC50 [4]: 52 nM
- IC50 [7]: > 50000 nM

SMILES: Cn1nc(C(F)(F)F)cc1-c1cc2c(Nc3ccc4scnc4c3)ncnc2cc1Cl
- IC50 [5]: 2600 nM
- IC50 [1]: 3360 nM
- IC50 [2]: 4570 nM
- IC50 [6]: > 50000 nM
- IC50 [4]: 324 nM
- IC50 [7]: > 50000 nM

SMILES: Cc1ncc(-c2ccc3ncnc(Nc4ccc5scnc5c4)c3c2)s1
- IC50 [5]: 6000 nM
- IC50 [1]: 108 nM
- IC50 [2]: 136 nM
- IC50 [6]: > 50000 nM
- IC50 [4]: 4 nM
- IC50 [7]: > 50000 nM

SMILES: Cn1cnc(-c2cc3c(Nc4ccc5scnc5c4)ncnc3cc2Cl)c1
- IC50 [1]: 140 nM
- IC50 [2]: 208 nM
- inhibition [3]: inactive
- IC50 [6]: > 50000 nM
- IC50 [4]: 10 nM
- IC50 [7]: > 50000 nM

SMILES: Cn1cnc(-c2ccc3ncnc(Nc4ccc5scnc5c4)c3c2)c1
- IC50 [1]: 95 nM
- IC50 [2]: 209 nM
- inhibition [3]: inactive
- IC50 [6]: > 50000 nM
- IC50 [4]: 11 nM
- IC50 [7]: > 50000 nM

SMILES: Cc1cscc1-c1cc2c(Nc3ccc4scnc4c3)ncnc2cc1Cl
- IC50 [1]: 2080 nM
- IC50 [9]: Not Active
- inhibition [3]: inactive
- IC50 [6]: > 50000 nM
- IC50 [4]: 104 nM
- IC50 [7]: > 50000 nM

SMILES: CC(C)S(=O)(=O)c1ccc2nccc(Nc3ccc4scnc4c3)c2c1
- IC50 [1]: 4 nM
- IC50 [2]: 9 nM
- IC50 [4]: 2 nM

SMILES: Cn1cc(-c2cc3c(Nc4ccc5scnc5c4)ncnc3cc2Cl)cn1
- IC50 [1]: 63 nM
- IC50 [2]: 67 nM
- inhibition [3]: inactive
- IC50 [6]: > 50000 nM
- IC50 [4]: 4 nM
- IC50 [7]: > 50000 nM

SMILES: Cc1ncc(-c2cc3c(Nc4ccc5scnc5c4)ncnc3cc2Cl)n1C
- IC50 [1]: 96 nM
- IC50 [2]: 189 nM
- inhibition [3]: inactive
- IC50 [6]: > 50000 nM
- IC50 [4]: 10 nM
- IC50 [7]: > 50000 nM

SMILES: Cn1ccnc1-c1ccc2ncnc(Nc3ccc4scnc4c3)c2c1
- IC50 [1]: 273 nM
- IC50 [2]: 239 nM
- inhibition [3]: inactive
- IC50 [6]: > 50000 nM
- IC50 [4]: 12 nM
- IC50 [7]: > 50000 nM

SMILES: OCc1cccc(-c2cc3ncnc(Nc4ccc5scnc5c4)c3cc2-c2cccs2)c1
- IC50 [5]: 551 nM
- IC50 [1]: 396 nM
- IC50 [2]: 432 nM
- IC50 [6]: > 50000 nM
- IC50 [4]: 5 nM
- IC50 [7]: > 50000 nM

SMILES: Cn1cccc1-c1ccc2ncnc(Nc3ccc4scnc4c3)c2c1
- IC50 [5]: 2900 nM
- IC50 [1]: 523 nM
- IC50 [2]: 726 nM
- IC50 [6]: > 50000 nM
- IC50 [4]: 22 nM
- IC50 [7]: > 50000 nM
